Measured values as given in paper PMC7594721, “Synthesis and biological activity of 2-cyanoacrylamide derivatives tethered to imidazopyridine as TAK1 inhibitors” (Journal of Enzyme Inhibition and Medicinal Chemistry, 2020).
“Also recorded” adds a separate entry of the source.

How the values were obtained:
TAK1 = biological target: T1, TAK1 (Homo sapiens, UniProt O43318); assay: TAK1 LanthaScreen Eu Kinase Binding Assay (Invitrogen; Table 1 calls it TAK1 enzymatic assay)
T1 construct: purchased Invitrogen (Thermo Fisher Scientific)
T1 sequence (O43318 with tags, fused parts or gaps limits assumed): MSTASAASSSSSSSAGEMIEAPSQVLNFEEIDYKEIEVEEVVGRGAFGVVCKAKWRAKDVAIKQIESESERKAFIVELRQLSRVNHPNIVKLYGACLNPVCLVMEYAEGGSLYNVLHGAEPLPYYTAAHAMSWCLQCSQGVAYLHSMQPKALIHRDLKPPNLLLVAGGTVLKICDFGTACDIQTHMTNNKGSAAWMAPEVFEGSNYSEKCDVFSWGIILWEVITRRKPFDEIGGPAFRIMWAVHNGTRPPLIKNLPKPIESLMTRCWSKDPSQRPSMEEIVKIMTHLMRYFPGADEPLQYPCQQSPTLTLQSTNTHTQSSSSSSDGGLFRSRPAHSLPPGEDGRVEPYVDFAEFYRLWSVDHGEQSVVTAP
Method: (§1) Kinase assays were performed by Invitrogen (now Thermo Fisher Scientific, Waltham, MA) or Reaction Biology Corp. (Malvern, PA). Inhibitory activity of compounds for TAK1 was evaluated using LanthaScreen® Eu Kinase Binding Assay (Invitrogen, Waltham, MA). The kinase profile of compound 13h was determined by the kinase HotSpot Profiling service of Reaction Biology Corporation. All assays were performed at Km for ATP.
Table 1. TAK1 enzymatic assay with imidazopyridine derivatives. ^a In-vitro enzymatic assay data obtained from Invitrogen^TM.

ASK1/MAP3K5 = biological target: T2, ASK1/MAP3K5 (Homo sapiens, UniProt Q99683); assay: Kinase HotSpot profiling (Reaction Biology Corp.); format: biochemical; details: ATP at Km
T2 construct: purchased Reaction Biology Corp
T2 sequence (Q99683 1-1374): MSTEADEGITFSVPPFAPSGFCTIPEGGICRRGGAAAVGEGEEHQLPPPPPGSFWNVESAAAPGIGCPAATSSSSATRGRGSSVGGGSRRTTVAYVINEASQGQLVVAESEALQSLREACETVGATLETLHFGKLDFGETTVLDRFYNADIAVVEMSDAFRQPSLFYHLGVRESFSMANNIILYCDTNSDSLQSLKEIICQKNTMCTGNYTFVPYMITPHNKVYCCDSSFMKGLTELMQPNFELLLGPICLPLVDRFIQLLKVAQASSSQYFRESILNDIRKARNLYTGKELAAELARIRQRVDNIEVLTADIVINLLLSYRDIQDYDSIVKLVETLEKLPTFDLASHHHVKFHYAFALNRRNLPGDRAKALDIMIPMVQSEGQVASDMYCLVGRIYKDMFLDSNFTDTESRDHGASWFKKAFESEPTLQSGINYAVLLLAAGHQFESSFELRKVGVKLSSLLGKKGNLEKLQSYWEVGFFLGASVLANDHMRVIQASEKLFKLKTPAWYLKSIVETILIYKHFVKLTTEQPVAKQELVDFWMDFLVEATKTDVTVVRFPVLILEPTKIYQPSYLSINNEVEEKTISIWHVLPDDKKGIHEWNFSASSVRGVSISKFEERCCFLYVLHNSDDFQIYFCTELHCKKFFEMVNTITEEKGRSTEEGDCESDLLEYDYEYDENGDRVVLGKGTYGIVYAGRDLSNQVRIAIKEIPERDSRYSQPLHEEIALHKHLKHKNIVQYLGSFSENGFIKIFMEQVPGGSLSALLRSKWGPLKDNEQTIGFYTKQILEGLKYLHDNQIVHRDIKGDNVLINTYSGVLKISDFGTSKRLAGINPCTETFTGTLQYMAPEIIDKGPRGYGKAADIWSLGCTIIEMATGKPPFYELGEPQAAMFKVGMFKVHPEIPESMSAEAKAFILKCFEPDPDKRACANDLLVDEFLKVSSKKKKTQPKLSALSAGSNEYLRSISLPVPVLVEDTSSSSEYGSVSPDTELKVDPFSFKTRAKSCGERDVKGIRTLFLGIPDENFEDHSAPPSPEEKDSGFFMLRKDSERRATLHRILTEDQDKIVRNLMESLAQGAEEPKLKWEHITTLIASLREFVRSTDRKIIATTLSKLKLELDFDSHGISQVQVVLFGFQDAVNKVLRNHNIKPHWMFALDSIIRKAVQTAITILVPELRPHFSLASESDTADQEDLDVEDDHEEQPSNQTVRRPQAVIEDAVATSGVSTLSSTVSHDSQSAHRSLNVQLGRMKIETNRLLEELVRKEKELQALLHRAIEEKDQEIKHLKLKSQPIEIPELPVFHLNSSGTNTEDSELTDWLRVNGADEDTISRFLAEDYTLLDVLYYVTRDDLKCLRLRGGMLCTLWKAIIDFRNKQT
Method: as §1

MEK1/MAP2K1 = biological target: T3, MEK1/MAP2K1 (Homo sapiens, UniProt Q02750); assay: Kinase HotSpot profiling (Reaction Biology Corp.); format: biochemical; details: ATP at Km
T3 construct: purchased Reaction Biology Corp
T3 sequence (Q02750 whole entry): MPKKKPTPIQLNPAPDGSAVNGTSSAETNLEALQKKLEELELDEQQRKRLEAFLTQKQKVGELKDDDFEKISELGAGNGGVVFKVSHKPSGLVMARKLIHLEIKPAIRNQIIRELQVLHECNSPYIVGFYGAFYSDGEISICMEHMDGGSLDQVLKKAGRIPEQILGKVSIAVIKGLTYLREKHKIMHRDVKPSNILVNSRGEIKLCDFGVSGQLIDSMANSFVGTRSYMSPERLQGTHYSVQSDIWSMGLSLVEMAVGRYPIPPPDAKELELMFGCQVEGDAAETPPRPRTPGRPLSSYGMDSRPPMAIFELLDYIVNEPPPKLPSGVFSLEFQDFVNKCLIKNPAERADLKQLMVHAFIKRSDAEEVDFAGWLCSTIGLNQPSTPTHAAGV
Method: as §1

MINK1/MAP4K6 = biological target: T4, MINK1/MAP4K6 (Homo sapiens, UniProt Q8N4C8); assay: Kinase HotSpot profiling (Reaction Biology Corp.); format: biochemical; details: ATP at Km
T4 construct: purchased Reaction Biology Corp
T4 sequence (Q8N4C8 whole entry): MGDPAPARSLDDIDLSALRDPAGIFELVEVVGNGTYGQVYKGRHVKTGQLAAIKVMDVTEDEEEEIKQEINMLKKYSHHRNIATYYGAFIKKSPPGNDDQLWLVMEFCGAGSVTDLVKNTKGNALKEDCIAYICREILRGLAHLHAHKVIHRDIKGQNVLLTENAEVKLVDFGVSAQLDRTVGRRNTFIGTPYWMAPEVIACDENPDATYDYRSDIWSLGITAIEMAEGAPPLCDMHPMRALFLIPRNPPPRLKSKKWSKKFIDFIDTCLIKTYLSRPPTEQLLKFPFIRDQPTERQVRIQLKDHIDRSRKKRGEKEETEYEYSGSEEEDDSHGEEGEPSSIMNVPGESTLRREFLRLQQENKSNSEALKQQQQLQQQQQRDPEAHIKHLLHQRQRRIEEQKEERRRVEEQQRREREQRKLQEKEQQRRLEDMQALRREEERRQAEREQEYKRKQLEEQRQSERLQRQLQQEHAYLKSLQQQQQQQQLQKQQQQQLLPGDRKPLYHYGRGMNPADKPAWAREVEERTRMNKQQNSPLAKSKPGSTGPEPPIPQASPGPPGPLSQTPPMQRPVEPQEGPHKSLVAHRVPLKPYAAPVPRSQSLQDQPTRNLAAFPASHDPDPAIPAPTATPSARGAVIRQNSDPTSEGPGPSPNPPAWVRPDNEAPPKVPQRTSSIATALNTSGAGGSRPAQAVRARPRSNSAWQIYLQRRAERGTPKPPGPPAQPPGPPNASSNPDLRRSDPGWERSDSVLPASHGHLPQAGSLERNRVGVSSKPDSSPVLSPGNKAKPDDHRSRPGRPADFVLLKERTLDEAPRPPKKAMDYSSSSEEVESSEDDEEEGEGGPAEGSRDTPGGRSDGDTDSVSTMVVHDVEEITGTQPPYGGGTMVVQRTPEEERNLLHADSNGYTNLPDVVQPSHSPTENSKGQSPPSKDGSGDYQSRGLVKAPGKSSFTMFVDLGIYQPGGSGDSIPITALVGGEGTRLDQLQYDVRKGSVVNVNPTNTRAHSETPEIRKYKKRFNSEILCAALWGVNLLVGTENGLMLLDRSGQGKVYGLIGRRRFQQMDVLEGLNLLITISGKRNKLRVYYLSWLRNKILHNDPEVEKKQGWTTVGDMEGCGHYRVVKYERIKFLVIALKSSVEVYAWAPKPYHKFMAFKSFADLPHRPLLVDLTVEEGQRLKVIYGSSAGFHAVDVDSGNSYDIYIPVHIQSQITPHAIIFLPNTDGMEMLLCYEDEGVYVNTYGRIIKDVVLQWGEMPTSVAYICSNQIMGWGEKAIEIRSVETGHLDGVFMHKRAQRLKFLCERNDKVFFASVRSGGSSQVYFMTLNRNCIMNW
Method: as §1

MDA-MB-231 cells = assay: Caspase-3/7 assay (Apo-ONE); format: cell-based; details: 0.5 µM, presence of TNFα (10 ng/ml), 24 h, MDA-MB-231
Method: MDA-MB-231 cells were obtained from the Korean Cell Line Bank. Cells were cultured in Roswell Park Memorial Institute (RPMI) 1640 medium containing 10% foetal bovine serum and 1% penicillin/streptomycin at 37 °C with 5% CO2 under humidified atmosphere.
The assay was performed using Apo-ONE® Homogeneous Caspase-3/7 Assay kits (Catalogue No. G7790, Promega, Madison, WI). MDA-MB-231 cells in a concentration of 5000 cells/100 µl were seeded in each well of a black 96-well plate and starved after adhering to the plate. The cells were incubated for 24 h, and the serum-starved cells were treated with either Takinib or 13h in the presence or absence of TNFα (10 ng/ml). All samples and the control contained DMSO in a final concentration of 0.5%. After another 24 h of incubation, 100 µL of Apo-ONE® caspase-3/7 reagent was added to each well, and the cells were incubated at room temperature in darkness for 2 h. Fluorescence was then measured at 530 nm with excitation at 485 nm using a FlexStation 3 Multi-Mode microplate reader (Molecular Devices). Statistical analyses of the data included a one-way ANOVA, followed by Tukey’s multiple comparison test.

IC50 (TAK1; read-out: IC50 against TAK1): 27 nM
inhibition at 1 µM (ASK1/MAP3K5): 4%
inhibition at 1 µM (MEK1/MAP2K1): 10 ± 0.7%
inhibition at 1 µM (MINK1/MAP4K6): 15 ± 2.4%
Structure (SMILES): Cc1cccc(/C=C(\C#N)C(=O)N[C@@H]2CCN(c3c(Cl)cnc4[nH]c(-c5ccc(N6CCN(C)CC6)cc5)nc34)C2)n1 [Compound 13h, (R,E)-N-(1–(6-chloro-2–(4-(4-methylpiperazin-1-yl)phenyl)-3H-imidazo[4,5-b]pyridin-7-yl)pyrrolidin-3-yl)-2-cyano-3-(6-methylpyridin-2-yl)acrylamide]
TAK1 potency, SAR result in words (TAK1; Table 1 SAR discussion): maintained or improved potency; also recorded: excellent
caspase-3/7 activity (MDA-MB-231 cells): induced significant caspase activation
